Columns and labels:
[1] = Ferric reducing antioxidant power assay (FRAP); conditions: ferrous equivalents; 4 min, absorbance 593 nm
Experimental: Ferric reducing antioxidant power assay (FRAP) was conducted as previously described, with slight modifications. An amount of 10 µL of the extract was mixed with 2 ml of the TPTZ–ferric solution and than incubated for 4 min at room temperature in the dark. The absorbance was read at 593 nm and the result was expressed as ferrous equivalents (FE; mg Fe^2+ equivalents/mL solution). Ascorbic acid was used as reference compound.

[2] = target: Saccharomyces cerevisiae α-glucosidase; test: α-Glucosidase inhibition assay (pNPG substrate); format: biochemical; conditions: for α-Glucosidase Mode of inhibition: Lineweaver-Burk plot; for equilibrium constant for binding with the enzyme-substrate complex (KIS): from intercepts (1/Vmax) versus inhibitor concentration; for equilibrium constant for binding with the free enzyme (KI): from slope (Km/Vmax) versus inhibitor concentration
Experimental: The concentrations of extract required to give 50% inhibition of enzyme activity (IC50) were determined. […] The Lineweaver-Burk double reciprocal plot was used to determine the mode of α-glucosidase inhibition by performing assays at different concentrations of substrate and extract or compound. Grafit 7 (Erithacus, East Grinstead, UK) was used as data analysis software. α-Glucosidase inhibitory activity was analysed following the method described by Delogu et al.[15]. […] It was first incubated for 15 min at 37 °C. Then, 20 µL of p-nitrophenyl α-D-glucopyranoside solution (pNPG, 5 mM) was added. After further 15 min of incubation at 37 °C, the reaction was stopped by adding 50 μL of 0.2 M sodium carbonate solution. α-Glucosidase activity was determined with a 96-well microplate reader by measuring the absorbance at 405 nm. The mode of inhibition was determined, and the equilibrium constant for binding with the enzyme–substrate complex (KIS) was obtained from the vertical intercepts plotted versus inhibitor concentration.

[3] = test system: Saccharomyces cerevisiae α-glucosidase; set-up: method as in PMID 25805337; conditions: cited from earlier work
[4] = ABTS radical scavenging activity; conditions: 50% reduction of absorbance at 734 nm after 1 min
Experimental: Briefly, the reaction between the reduced ABTS (7 mM) with potassium persulfate (2.45 mM) in an aqueous solution at room temperature for 24 h, was performed to produce free radical ABTS^.+. Then, different concentrations of extract (10 μL) were added to 1 ml of ABTS^.+, and the absorbance at 734 nm was recorded after 1 min. The activity was expressed as the concentration of sample necessary to give a 50% reduction in the original absorbance (EC50).

SMILES	α-Glucosidase IC50 [2]	α-Glucosidase Mode of inhibition [2]	equilibrium constant for binding with the enzyme-substrate complex (KIS) [2]	further results
O=C1O[C@H]([C@@H](O)CO)C(O)=C1O [Ascorbic acid]	–	–	–	FRAP [1]: 1.81 ± 0.13 mg FE/mL
O=C(/C=C/c1ccc(O)c(O)c1)O[C@@H]1CC(O)(C(=O)O)C[C@@H](OC(=O)/C=C/c2ccc(O)c(O)c2)C1O (stereo partly shown) [3,5-dicaffeoylquinic acid, 3,5-Dicaffeoylquinic acid]	–	–	–	α-glucosidase inhibition (in words) [3]: able to inhibit this enzyme
O=C(/C=C/c1ccc(O)c(O)c1)O[C@H]1[C@H](O)C[C@](O)(C(=O)O)C[C@H]1OC(=O)/C=C/c1ccc(O)c(O)c1 [4,5-dicaffeoylquinic acid]	–	–	–	α-glucosidase inhibition (in words) [3]: able to inhibit this enzyme
O=C(/C=C/c1ccc(O)c(O)c1)O[C@@H]1C[C@](O)(C(=O)O)C[C@@H](O)[C@H]1O [Chlorogenic acid (1), 5-O-Caffeoylquinic acid (Chlorogenic acid)]	>100 µg/mL	–	–	α-glucosidase inhibitory activity (in words) [2]: no inhibitory activity
Cc1c(C)c2c(c(C)c1O)CCC(C)(C(=O)O)O2 (stereo not shown) [Trolox, 6-hydroxy-2,5,7,8-tetramethylchromane-2-carboxylic acid]	–	–	–	ABTS EC50 [4]: 3.4 ± 0.3 µg/mL
O=C(/C=C/c1ccc(O)c(O)c1)O[C@@H]1C[C@](OC(=O)/C=C/c2ccc(O)c(O)c2)(C(=O)O)C[C@@H](O)[C@H]1O [1,5-Dicaffeoylquinic acid (9), 1,5-Dicaffeoylquinic acid]	36.64 ± 0.07 µg/mL	Uncompetitive	69.4 µg/mL	–

Second part, led by results:

α-Glucosidase IC50 [2]	α-Glucosidase Mode of inhibition [2]	equilibrium constant for binding with the enzyme-substrate complex (KIS) [2]	SMILES	further results
3.88 ± 1.48 µg/mL	Mixed	19.6 µg/mL	O=c1cc(-c2ccc(O)cc2)oc2cc(O)cc(O)c12 [Apigenin (23), Apigenin]	α-Glucosidase Mode of inhibition ([2]; listed as apigenin): mixed-type inhibition; equilibrium constant for binding with the free enzyme (KI) [2]: 6.5 µg/mL
20.54 ± 4.45 µg/mL	Mixed	80.2 µg/mL	C[C@@H]1O[C@@H](OC[C@H]2O[C@@H](Oc3c(-c4ccc(O)c(O)c4)oc4cc(O)cc(O)c4c3=O)[C@H](O)[C@@H](O)[C@@H]2O)[C@H](O)[C@H](O)[C@H]1O [Rutin (4), Quercetin 3-O-rutinoside (Rutin)]	α-Glucosidase Mode of inhibition ([2]; listed as rutin): mixed-type inhibition; equilibrium constant for binding with the free enzyme (KI) [2]: 9.3 µg/mL
